Laboratory results from patent US20140005165A1, “SUBSTITUTED 3-AZABICYCLO[3.1.0]HEXANE DERIVATIVES USEFUL AS CCR2 ANTAGONISTS” (priority 2011, published 2014).

Target: T1, human CCR2 (Homo sapiens, UniProt P41597)
T1 construct: expressed in transfected cells; host or cells: Ba/F3 cells (membrane preparation)
Test: CCR2 Membrane Binding Assay (SPA radio-ligand binding, 125I-rhMCP-1)
Settings: membranes from Ba/F3 cells transfected with human CCR2; 0.03 nM 125I-rhMCP-1; 4 h room temperature
Protocol: The radio-ligand binding assay was done using scintillation proximity assay (SPA) technology. Briefly, membranes (1 μg per assay point) from Ba/F3 cells transfected with human CCR2, and wheat germ agglutinin-coated SPA beads (80 μg per point; Amersham, Arlington Heights, Ill.), were pre-incubated for 30 min at room temperature in CCR2 buffer (50 mM HEPES (pH=7.4), 10 mM MgCl2, 10 mM NaCl, 1 mM CaCL2, 0.1% BSA, 10 μg/ml Saponin). At this point pre-bound SPA bead, membrane complex was incubated at room temperature for 4 h with varying concentrations of punitive CCR2 antagonists (in 1% DMSO, final) and 0.03 nM ^125I-rhMCP-1 in CCR2Buffer (S.A. 2200 Ci/mmol, PerkinElmer Life and Analytical Science, Boston, Mass.; NEX332). Binding competition was measured using a 1450 Microbeta Trilux counter (Wallac, Gaithersburg, Md.). Binding constants (IC50 and slope) were calculated using GraphPad Prism software (GraphPad Software, Inc., La Jolla Calif.).

T1 sequence (P41597 whole entry): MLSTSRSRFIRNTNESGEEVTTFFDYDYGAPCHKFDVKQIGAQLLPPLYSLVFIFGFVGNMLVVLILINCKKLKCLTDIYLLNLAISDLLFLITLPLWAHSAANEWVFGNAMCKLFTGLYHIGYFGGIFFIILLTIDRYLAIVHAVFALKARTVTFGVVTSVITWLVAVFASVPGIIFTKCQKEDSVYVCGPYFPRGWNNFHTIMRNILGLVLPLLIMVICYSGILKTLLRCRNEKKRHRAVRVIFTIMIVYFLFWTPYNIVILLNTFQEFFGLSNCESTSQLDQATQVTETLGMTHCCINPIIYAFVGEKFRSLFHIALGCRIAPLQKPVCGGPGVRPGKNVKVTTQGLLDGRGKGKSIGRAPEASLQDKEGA

IC50 [nM] | SMILES
1.8 | O=C(CNC(=O)[C@H]1[C@@H]2CN([C@H]3CC[C@@H](c4ccccn4)CC3)C[C@@H]21)Nc1cccc(C(F)(F)F)c1 [Compound 81]
4 | O=C(CNC(=O)[C@H]1[C@@H]2CN([C@H]3CC[C@@H](c4cccnc4)CC3)C[C@@H]21)Nc1cccc(C(F)(F)F)c1 [Compound 82]
11 | O=C(CNC(=O)[C@H]1[C@@H]2CN([C@H]3CC[C@@H](c4ccncc4)CC3)C[C@@H]21)Nc1cccc(C(F)(F)F)c1 [Compound 83]
7.6 | O=C(CNC(=O)[C@H]1[C@@H]2CN([C@H]3CC[C@@H](c4ncccn4)CC3)C[C@@H]21)Nc1cccc(C(F)(F)F)c1 [Compound 90]
13.6 | Cn1cc([C@H]2CC[C@@H](N3C[C@@H]4[C@H](C3)[C@H]4C(=O)NCC(=O)Nc3cccc(C(F)(F)F)c3)CC2)cn1 [Compound 94]
3.7 | O=C(CNC(=O)[C@H]1[C@@H]2CN([C@H]3CC[C@@H](c4ccsc4)CC3)C[C@@H]21)Nc1cccc(C(F)(F)F)c1 [Compound 97]
3.1 | O=C(CNC(=O)[C@H]1[C@@H]2CN([C@H]3CC[C@@H](c4ccc(O)cc4)CC3)C[C@@H]21)Nc1cccc(C(F)(F)F)c1 [Compound 114]
6.1 | O=C(CNC(=O)[C@H]1[C@@H]2CN([C@H]3CC[C@@H](c4ccc(F)cc4)CC3)C[C@@H]21)Nc1cccc(C(F)(F)F)c1 [Compound 119]

Continued, compound first:

SMILES | IC50 [nM]
O=C(CNC(=O)[C@H]1[C@@H]2CN([C@H]3CC[C@@H](c4ccccc4)OC3)C[C@@H]21)Nc1cccc(C(F)(F)F)c1 [Compound 89] | 3.6
O=C(CNC(=O)[C@H]1[C@@H]2CN(C3CCC(O)(c4nccs4)CC3)C[C@@H]21)Nc1cccc(C(F)(F)F)c1 (some centres unmarked) [Compound 120] | 3.9

Same assay, conditions: membranes from Ba/F3 cells transfected with human CCR2; 0.03 nM 125I-rhMCP-1; class symbols

IC50 [nM] | SMILES | IC50 (nM)
201 to 700 | O=C(CNC(=O)[C@H]1[C@@H]2CN([C@H]3CC[C@H](c4ccccn4)CC3)C[C@@H]21)Nc1cccc(C(F)(F)F)c1 [Compound 84] | 
201 to 700 | O=C(CNC(=O)[C@H]1[C@@H]2CN([C@H]3CC[C@H](c4ccncc4)CC3)C[C@@H]21)Nc1cccc(C(F)(F)F)c1 [Compound 85] | 
< 50 | O=C(CNC(=O)[C@H]1[C@@H]2CN([C@H]3CC[C@@H](c4cncnc4)CC3)C[C@@H]21)Nc1cccc(C(F)(F)F)c1 [Compound 91] | 
51 to 200 | Cn1ccnc1C1CCC(N2C[C@@H]3[C@H](C2)[C@H]3C(=O)NCC(=O)Nc2cccc(C(F)(F)F)c2)CC1 (some centres unmarked) [Compound 95] | 
51 to 200 | O=C(CNC(=O)[C@H]1[C@@H]2CN([C@H]3CC[C@H](c4ccsc4)CC3)C[C@@H]21)Nc1cccc(C(F)(F)F)c1 [Compound 99] | 
201 to 700 | O=C(CNC(=O)[C@H]1[C@@H]2CN([C@H]3CC[C@H](c4cccs4)CC3)C[C@@H]21)Nc1cccc(C(F)(F)F)c1 [Compound 100] | 
< 50 | O=C(CNC(=O)[C@H]1[C@@H]2CN([C@H]3CC[C@H](c4ccc(O)cc4)CC3)C[C@@H]21)Nc1cccc(C(F)(F)F)c1 [Compound 115] | 
< 50 | O=C(CNC(=O)[C@H]1[C@@H]2CN([C@H]3CC[C@@H](c4ccc(=O)[nH]c4)CC3)C[C@@H]21)Nc1cccc(C(F)(F)F)c1 [Compound 117] | 
201 to 700 | O=C(CNC(=O)[C@H]1[C@@H]2CN([C@H]3CC[C@@H](c4cnc(O)nc4)CC3)C[C@@H]21)Nc1cccc(C(F)(F)F)c1 [Compound 118] | 

More lines, now with the values behind:

SMILES | IC50 [nM] | IC50 (nM)
CC(C)(C)C1CCC(N2C[C@@H]3[C@H](C2)[C@H]3C(=O)NCC(=O)Nc2cccc(C(F)(F)F)c2)CC1 (some centres unmarked) [Compound 54] |  | D (compounds with IC50 values between 701 nM and 110 nM are designated as D class compounds)
CC(=O)NC1CCC(N2C[C@@H]3[C@H](C2)[C@H]3C(=O)NCC(=O)Nc2cccc(C(F)(F)F)c2)CC1 (some centres unmarked) [Compound 55] | 201 to 700 | 
COC(=O)[C@H]1CC[C@@H](N2C[C@@H]3[C@H](C2)[C@H]3C(=O)NCC(=O)Nc2cccc(C(F)(F)F)c2)CC1 [Compound 57] | < 50 | 
COC(=O)[C@H]1CC[C@H](N2C[C@@H]3[C@H](C2)[C@H]3C(=O)NCC(=O)Nc2cccc(C(F)(F)F)c2)CC1 [Compound 58] | 201 to 700 | 
O=C([C@H]1[C@@H]2CN([C@H]3CC[C@@H](c4ccccc4)CC3)C[C@@H]21)N1CC(c2cccc(C(F)(F)F)c2)C1 [Compound 59] | 201 to 700 | 
O=C([C@H]1[C@@H]2CN([C@H]3CC[C@@H](c4ccccc4)CC3)C[C@@H]21)N1CCc2ncc(C(F)(F)F)cc2C1 [Compound 61] | 201 to 700 | 
O=C(NCCCc1cccc(C(F)(F)F)c1)[C@H]1[C@@H]2CN([C@H]3CC[C@@H](c4ccccc4)CC3)C[C@@H]21 [Compound 62] | 51 to 200 | 
O=C(CNC(=O)[C@H]1[C@@H]2CN(C3CC[C@H](c4ccccc4)C3)C[C@@H]21)Nc1cccc(C(F)(F)F)c1 (some centres unmarked) [Compound 64] | 51 to 200 | 
O=C(CNC(=O)[C@H]1[C@@H]2CN(C3CC[C@@H](c4ccccc4)C3)C[C@@H]21)Nc1cccc(C(F)(F)F)c1 (some centres unmarked) [Compound 65] | 201 to 700 | 
O=C(NCCc1cc(F)cc(C(F)(F)F)c1)[C@H]1[C@@H]2CN([C@H]3CC[C@@H](c4ccccc4)CC3)C[C@@H]21 [Compound 67] | 51 to 200 | 
O=C(NC1Cc2ccc(Br)cc2C1)[C@H]1[C@@H]2CN([C@H]3CC[C@@H](c4ccccc4)CC3)C[C@@H]21 (some centres unmarked) [Compound 68] | 51 to 200 | 
O=C([C@H]1[C@@H]2CN([C@H]3CC[C@@H](c4ccccc4)CC3)C[C@@H]21)N1CCC(c2cccc(C(F)(F)F)c2)C1 (some centres unmarked) [Compound 70] | < 50 | 
O=C([C@H]1[C@@H]2CN([C@H]3CC[C@@H](c4ccccc4)CC3)C[C@@H]21)N1CCC(c2cccc(C(F)(F)F)c2)C1 (some centres unmarked) [Compound 71] | < 50 | 
O=C([C@H]1[C@@H]2CN([C@H]3CC[C@@H](c4ccccc4)CC3)C[C@@H]21)N1CCC(c2ccc(C(F)(F)F)cc2)C1 (some centres unmarked) [Compound 73] | 51 to 200 | 
O=C(NCC1(c2cccc(C(F)(F)F)c2)CC1)[C@H]1[C@@H]2CN([C@H]3CC[C@@H](c4ccccc4)CC3)C[C@@H]21 [Compound 74] | 201 to 700 | 
O=C([C@H]1[C@@H]2CN([C@H]3CC[C@@H](c4ccccc4)CC3)C[C@@H]21)N1CC(Oc2ccc(C(F)(F)F)cc2)C1 [Compound 76] |  | D (compounds with IC50 values between 701 nM and 110 nM are designated as D class compounds)

SMILES | IC50 [nM] | IC50 (nM)
O=C([C@H]1[C@@H]2CN([C@H]3CC[C@@H](c4ccccc4)CC3)C[C@@H]21)N1CC(Oc2ccc(Cl)c(Cl)c2)C1 [Compound 77] | 51 to 200 | 
O=C(CNC(=O)[C@H]1[C@@H]2CN(C3CC3)C[C@@H]21)Nc1cccc(C(F)(F)F)c1 [Compound 78] | 201 to 700 | 
O=C(CNC(=O)[C@H]1[C@@H]2CN([C@H]3CC[C@H](c4ccccc4)CC3)C[C@@H]21)Nc1cccc(C(F)(F)F)c1 [Compound 79] |  | D (compounds with IC50 values between 701 nM and 110 nM are designated as D class compounds)
O=C(CNC(=O)[C@H]1[C@@H]2CN(C3CCCC(c4ccccc4)C3)C[C@@H]21)Nc1cccc(C(F)(F)F)c1 (some centres unmarked) [Compound 80] |  | D (compounds with IC50 values between 701 nM and 110 nM are designated as D class compounds)
CC(C)N1C[C@@H]2[C@H](C1)[C@H]2C(=O)NCC(=O)Nc1cccc(C(F)(F)F)c1 [Compound 93] | 51 to 200 | 
Cn1cc([C@H]2CC[C@H](N3C[C@@H]4[C@H](C3)[C@H]4C(=O)NCC(=O)Nc3cccc(C(F)(F)F)c3)CC2)cn1 [Compound 96] |  | D (compounds with IC50 values between 701 nM and 110 nM are designated as D class compounds)
O=C(CNC(=O)[C@H]1[C@@H]2CN([C@H]3CC[C@@H](c4cccs4)CC3)C[C@@H]21)Nc1cccc(C(F)(F)F)c1 [Compound 98] | < 50 | 
O=C([C@H]1[C@@H]2CN([C@H]3CC[C@@H](c4ccccc4)CC3)C[C@@H]21)N1CCC(c2cccc(C(F)(F)F)c2)CC1 [Compound 106] |  | D (compounds with IC50 values between 701 nM and 110 nM are designated as D class compounds)
O=C([C@H]1[C@@H]2CN([C@H]3CC[C@@H](c4ccccc4)CC3)C[C@@H]21)N1CCN(c2cccc(C(F)(F)F)c2)CC1 [Compound 108] | 201 to 700 | 
O=C(CNC(=O)[C@H]1[C@@H]2CN(C3CCC3)C[C@@H]21)Nc1cccc(C(F)(F)F)c1 [Compound 110] | 201 to 700 | 
O=C([C@H]1[C@@H]2CN([C@H]3CC[C@@H](c4ccccc4)CC3)C[C@@H]21)N1CC[C@H](Nc2nccc(C(F)(F)F)n2)C1 [Compound 111] | 51 to 200 | 
O=C(N[C@@H]1CCN(c2nccc(C(F)(F)F)n2)C1)[C@H]1[C@@H]2CN([C@H]3CC[C@@H](c4ccccc4)CC3)C[C@@H]21 [Compound 112] | 201 to 700 | 
O=C([C@H]1[C@@H]2CN([C@H]3CC[C@@H](c4ccccc4)CC3)C[C@@H]21)N1CCC(Nc2ncc(C(F)(F)F)cn2)C1 (some centres unmarked) [Compound 113] | 201 to 700 | 
O=C(CNC(=O)[C@H]1[C@@H]2CN(C3CC(COCc4ccccc4)C3)C[C@@H]21)Nc1cccc(C(F)(F)F)c1 (some centres unmarked) [Compound 116] | 201 to 700 | 
O=C(CNC(=O)[C@H]1[C@@H]2CN(C3CCC(O)(c4cncs4)CC3)C[C@@H]21)Nc1cccc(C(F)(F)F)c1 (some centres unmarked) [Compound 121] | < 50 | 
